Results on 1 molecule are retold here after patent US20250073251A1, “COMPOSITIONS AND METHODS AND USES THEREOF” (Journey Medical Corporation, priority 2019, published 2025).

As usually defined, the Cmax is the highest concentration seen after dosing. A word on the Tmax: it is the time from dosing to the highest level.

Where a name gives a salt, the structure may show the parent alone.

One data set is described as follows: in vivo. Conditions: both, Göttingen, minipig, plasma, topical or ocular.
Data set [1] can be described thus: Toxicokinetics after daily dermal application.
Protocol: (§1) Bioanalytical Sample Collection Blood samples (approximately 2 mL) are collected from all surviving animals via the abdominal vena cava through the thoracic inlet for determination of the plasma concentrations of adapalene and minocycline (see Tables 5 and 6). The animals were not fasted prior to blood collection, with the exception of the intervals that coincided with fasting for clinical pathology collections.
(§2) Blood samples are collected in tubes containing K2EDTA and placed on wet ice and centrifuged under refrigerated conditions. The resulting plasma is divided into 3 aliquots (100 μL in Aliquot 1 [minocycline], 500 μL in Aliquot 2 [adapalene], and any remaining plasma in Aliquot 3) in pre-labeled cryovials. All aliquots are stored frozen at −60° C. to −90° C.
(§3) The TK parameters are determined for adapalene and minocycline from individual concentration-time data by the Testing Facility.

Protocol for in vivo: as §1, §2, §3

On to `CN(C)c1ccc(O)c2c1C[C@H]1C[C@H]3[C@H](N(C)C)C(O)=C(C(N)=O)C(=O)[C@@]3(O)C(O)=C1C2=O` [minocycline, minocycline hydrochloride], for which the peak concentration (Cmax) in “in vivo” came out at 17.4 ng/mL. Moreover, in data set [1] (Day 91), the “systemic exposure, dependence on sex” value was “independent of sex”. The Tmax entry in data set [1] (Group 6, minocycline […] + adapalene […] FCD105 Foam, Day 1, minimum-maximum (median not reported)) was “(4-8) hr”; in data set [1] (Group 6, minocycline […] + adapalene […] FCD105 Foam, Day 91, minimum-maximum (median not reported)), “(0-8) hr”; in data set [1] (Göttingen, minipig, plasma, topical or ocular, […], Tmax, Group 4, minocycline […] + adapalene […] FCD105 Foam, Day 1, median) it was 4 h; in data set [1] (Göttingen, minipig, plasma, topical or ocular, […], Tmax, Group 4, minocycline […] + adapalene […] FCD105 Foam, Day 91, median), 2 h; in data set [1] (Göttingen, minipig, plasma, topical or ocular, […], Tmax, Group 5, minocycline […] + adapalene […] FCD105 Foam, Day 1, median), 24 h; in data set [1] (Göttingen, minipig, plasma, topical or ocular, […], Tmax, Group 5, minocycline […] + adapalene […] FCD105 Foam, Day 91, median) it was 2 h.
